Reference: PubChem BioAssay (NCI)
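Briefly, cells in 96-well plates were exposed to five compound concentrations for 48 h, and endpoints were estimated by linear interpolation. TGI: concentration producing complete growth inhibition.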

Assays:
Assay in all cases: growth of human tumour cells (NCI), 48 h
[1] = system: NCI-H23 lung
[2] = system: COLO 205 colon
[3] = system: NCI-H460 lung
[4] = system: SK-MEL-2 melanoma
[5] = system: CCRF-CEM leukemia
[6] = system: MDA-MB-435
[7] = system: OVCAR-5 ovarian
[8] = system: UACC-62 melanoma
[9] = system: SK-OV-3 ovarian
[10] = system: PC-3 prostate
[11] = system: SR leukemia
[12] = system: SF-295 CNS
[13] = system: HCC-2998 colon
[14] = system: OVCAR-4 ovarian
[15] = system: MCF7 breast
[16] = system: MDA-MB-231 breast
[17] = system: SNB-75 CNS
[18] = system: EKVX NSCLC
[19] = system: SK-MEL-5 melanoma
[20] = system: SN12C renal
[21] = system: NCI-H226 lung
[22] = system: 786-0 renal
[23] = system: M14 melanoma
[24] = system: A549 NSCLC
[25] = system: NCI/ADR-RES ovarian
[26] = system: HCT-116 colon
[27] = system: HOP-92 NSCLC
[28] = system: HL-60(TB) leukemia
[29] = system: OVCAR-8 ovarian
[30] = system: MDA-N
[31] = system: OVCAR-3 ovarian
[32] = system: SW-620 colon
[33] = system: K-562 leukemia
[34] = system: HCT-15 colon
[35] = system: BT-549 breast
[36] = system: RXF 393 renal
[37] = system: TK-10 renal
[38] = system: CAKI-1 renal
[39] = system: LOX IMVI melanoma
[40] = system: HS 578T breast
[41] = system: HOP-62 NSCLC
[42] = system: HT29 colon
[43] = system: U251 CNS
[44] = system: IGROV1 ovarian
[45] = system: SNB-19 CNS
[46] = system: SK-MEL-28 melanoma
[47] = system: MOLT-4 leukemia
[48] = system: KM12 colon
[49] = system: UACC-257 melanoma
[50] = system: SF-539 CNS
[51] = system: UO-31 renal
[52] = system: ACHN renal
[53] = system: A498 renal
[54] = system: MALME-3M melanoma
[55] = system: NCI-H522 lung
[56] = system: RPMI-8226 leukemia
[57] = system: DU-145 prostate
[58] = system: SF-268 CNS
[59] = system: T-47D breast

O=C1Nc2c(Cl)cc(Cl)cc2/C1=N/N=C/c1ccccc1O
TGI [1]: 40.3 µM | TGI [2]: 31.4 µM | TGI [3]: 34.4 µM | TGI [4]: 39.9 µM | TGI [5]: 58.7 µM | TGI [6]: 51.6 µM | TGI [7]: 48.7 µM | TGI [8]: 32.1 µM | TGI [9]: 88.1 µM | TGI [10]: 53.5 µM | TGI [11]: 46.5 µM | TGI [12]: 47.7 µM | TGI [13]: 34.3 µM | TGI [14]: > 100 µM | TGI [15]: 94.2 µM | TGI [16]: 54.7 µM | TGI [17]: 48.2 µM | TGI [18]: 91.5 µM | TGI [19]: 47.5 µM | TGI [20]: 34.9 µM | TGI [21]: 74.6 µM | TGI [22]: 40.9 µM | TGI [23]: 49.8 µM | TGI [24]: 88.4 µM | TGI [25]: 51.7 µM | TGI [26]: 32.1 µM | TGI [27]: 62.8 µM | TGI [28]: 49.7 µM | TGI [29]: > 100 µM | TGI [30]: 35.1 µM | TGI [31]: 34 µM | TGI [32]: 59.3 µM | TGI [33]: 68.1 µM | TGI [34]: 51 µM | TGI [35]: 35.7 µM | TGI [36]: 50.7 µM | TGI [37]: > 100 µM | TGI [38]: 47.4 µM | TGI [39]: 31.8 µM | TGI [40]: 72.2 µM | TGI [41]: 41.3 µM | TGI [42]: 40.4 µM | TGI [43]: 36.1 µM | TGI [44]: 85.8 µM | TGI [45]: > 100 µM | TGI [46]: 40.3 µM | TGI [47]: 62.5 µM | TGI [48]: 68.4 µM | TGI [49]: 66.3 µM | TGI [50]: 41.6 µM | TGI [51]: > 100 µM | TGI [52]: > 100 µM | TGI [53]: 36.9 µM | TGI [54]: 88.4 µM

C=C(C)[C@@H]1CC[C@]2(COC(C)=O)CC[C@]3(C)[C@H](CC[C@@H]4[C@@]5(C)CC[C@H](OC(C)=O)C(C)(C)[C@@H]5CC[C@]43C)[C@@H]12
TGI [1]: > 50 µM | TGI [2]: > 50 µM | TGI [4]: > 50 µM | TGI [5]: > 50 µM | TGI [6]: > 50 µM | TGI [8]: > 50 µM | TGI [9]: > 50 µM | TGI [10]: > 50 µM | TGI [11]: > 50 µM | TGI [13]: 1.67 µM | TGI [14]: > 50 µM | TGI [16]: > 50 µM | TGI [17]: > 50 µM | TGI [19]: > 50 µM | TGI [20]: > 50 µM | TGI [21]: > 50 µM | TGI [22]: > 50 µM | TGI [23]: > 50 µM | TGI [24]: > 50 µM | TGI [55]: > 50 µM | TGI [25]: > 50 µM | TGI [26]: > 50 µM | TGI [27]: > 50 µM | TGI [28]: > 50 µM | TGI [29]: > 50 µM | TGI [30]: > 50 µM | TGI [31]: > 50 µM | TGI [32]: > 50 µM | TGI [33]: > 50 µM | TGI [34]: > 50 µM | TGI [35]: > 50 µM | TGI [56]: > 50 µM | TGI [39]: > 50 µM | TGI [40]: > 50 µM | TGI [41]: > 50 µM | TGI [42]: > 50 µM | TGI [43]: > 50 µM | TGI [44]: > 50 µM | TGI [45]: > 50 µM | TGI [46]: > 50 µM | TGI [47]: > 50 µM | TGI [49]: > 50 µM | TGI [50]: > 50 µM | TGI [51]: > 50 µM | TGI [52]: > 50 µM | TGI [53]: > 50 µM

CCN(CC)CCCNc1nc2ccccc2[n+]([O-])n1
TGI [1]: > 100 µM | TGI [2]: > 100 µM | TGI [3]: > 100 µM | TGI [4]: > 100 µM | TGI [5]: > 100 µM | TGI [6]: > 100 µM | TGI [7]: > 100 µM | TGI [8]: > 100 µM | TGI [10]: > 100 µM | TGI [11]: > 100 µM | TGI [12]: > 100 µM | TGI [13]: > 100 µM | TGI [14]: > 100 µM | TGI [15]: > 100 µM | TGI [16]: > 100 µM | TGI [17]: > 100 µM | TGI [19]: > 100 µM | TGI [20]: > 100 µM | TGI [21]: > 100 µM | TGI [22]: > 100 µM | TGI [23]: > 100 µM | TGI [24]: > 100 µM | TGI [55]: > 100 µM | TGI [25]: > 100 µM | TGI [26]: > 100 µM | TGI [27]: > 100 µM | TGI [28]: > 100 µM | TGI [29]: > 100 µM | TGI [30]: > 100 µM | TGI [31]: > 100 µM | TGI [32]: > 100 µM | TGI [33]: > 100 µM | TGI [34]: > 100 µM | TGI [35]: > 100 µM | TGI [56]: > 100 µM | TGI [36]: > 100 µM | TGI [37]: > 100 µM | TGI [38]: > 100 µM | TGI [42]: > 100 µM | TGI [43]: > 100 µM | TGI [44]: > 100 µM | TGI [57]: > 100 µM | TGI [45]: > 100 µM | TGI [46]: > 100 µM | TGI [58]: > 100 µM | TGI [47]: > 100 µM | TGI [48]: > 100 µM | TGI [49]: > 100 µM | TGI [50]: > 100 µM | TGI [51]: > 100 µM | TGI [52]: > 100 µM | TGI [59]: > 100 µM | TGI [53]: > 100 µM | TGI [54]: > 100 µM

O=C1/C(=C/c2ccc3c(c2)CCC3)Cc2cc3c(cc21)CCC3
TGI [1]: > 100 µM | TGI [2]: > 100 µM | TGI [3]: > 100 µM | TGI [4]: > 100 µM | TGI [5]: > 100 µM | TGI [6]: > 100 µM | TGI [7]: > 100 µM | TGI [8]: > 100 µM | TGI [9]: > 100 µM | TGI [10]: > 100 µM | TGI [11]: > 100 µM | TGI [12]: > 100 µM | TGI [13]: > 100 µM | TGI [14]: > 100 µM | TGI [15]: > 100 µM | TGI [16]: > 100 µM | TGI [17]: > 100 µM | TGI [18]: > 100 µM | TGI [19]: > 100 µM | TGI [20]: > 100 µM | TGI [21]: > 100 µM | TGI [23]: > 100 µM | TGI [24]: > 100 µM | TGI [55]: > 100 µM | TGI [25]: > 100 µM | TGI [26]: > 100 µM | TGI [27]: 97.6 µM | TGI [28]: > 100 µM | TGI [29]: > 100 µM | TGI [30]: > 100 µM | TGI [31]: > 100 µM | TGI [32]: > 100 µM | TGI [33]: > 100 µM | TGI [34]: > 100 µM | TGI [35]: > 100 µM | TGI [56]: > 100 µM | TGI [36]: > 100 µM | TGI [37]: > 100 µM | TGI [39]: > 100 µM | TGI [41]: > 100 µM | TGI [42]: > 100 µM | TGI [43]: > 100 µM | TGI [44]: > 100 µM | TGI [57]: > 100 µM | TGI [45]: > 100 µM | TGI [46]: > 100 µM | TGI [58]: > 100 µM | TGI [47]: > 100 µM | TGI [48]: > 100 µM | TGI [49]: > 100 µM | TGI [50]: > 100 µM | TGI [51]: > 100 µM | TGI [52]: > 100 µM | TGI [59]: > 100 µM | TGI [53]: > 100 µM | TGI [54]: > 100 µM

CN(C)CCCNC(=O)CCNC(=O)c1cc(NC(=O)c2cc(NC(=O)c3cc(NC(=O)CCCNC(=O)c4cc(NC(=O)c5cc(NC(=O)c6nccn6C)cn5C)cn4C)cn3C)cn2C)cn1C
TGI [1]: > 100 µM | TGI [2]: > 100 µM | TGI [3]: > 100 µM | TGI [4]: > 100 µM | TGI [5]: > 100 µM | TGI [6]: > 100 µM | TGI [7]: > 100 µM | TGI [9]: > 100 µM | TGI [10]: > 100 µM | TGI [12]: > 100 µM | TGI [13]: > 100 µM | TGI [14]: > 100 µM | TGI [15]: > 100 µM | TGI [16]: > 100 µM | TGI [17]: > 100 µM | TGI [18]: > 100 µM | TGI [19]: > 100 µM | TGI [20]: > 100 µM | TGI [21]: > 100 µM | TGI [22]: > 100 µM | TGI [23]: > 100 µM | TGI [24]: > 100 µM | TGI [55]: > 100 µM | TGI [25]: > 100 µM | TGI [26]: > 100 µM | TGI [27]: > 100 µM | TGI [28]: > 100 µM | TGI [29]: > 100 µM | TGI [30]: > 100 µM | TGI [31]: > 100 µM | TGI [32]: > 100 µM | TGI [33]: > 100 µM | TGI [34]: > 100 µM | TGI [56]: > 100 µM | TGI [36]: > 100 µM | TGI [37]: > 100 µM | TGI [38]: > 100 µM | TGI [39]: > 100 µM | TGI [40]: > 100 µM | TGI [41]: > 100 µM | TGI [42]: > 100 µM | TGI [43]: > 100 µM | TGI [44]: > 100 µM | TGI [45]: > 100 µM | TGI [46]: > 100 µM | TGI [58]: > 100 µM | TGI [47]: > 100 µM | TGI [48]: > 100 µM | TGI [49]: > 100 µM | TGI [50]: > 100 µM | TGI [51]: > 100 µM | TGI [52]: > 100 µM | TGI [53]: > 100 µM | TGI [54]: > 100 µM
